Measurements reported in US11279735B2, “Cyclic peptide antibiotics” (priority 2017, dated 2022).
≈ marks a conversion by molar mass, not a printed value. Where “and” joins values, the source holds several entries; their conditions need not be identical. Equal values may be shown once. *1 amine or outer side, *2 acyl side, *3 side chain or, on linkers, in order; H or OH if unused. Where a SMILES comes first, the peptide text is derived from it. [ ]: non-standard residue; d: D form. X16 = CCCCCC[C@@H](O[C@@H](C)CN[*:1])[C@@H](C)C(=O)[*:2]; X23 = CCCCCCCCCC[C@@H](OCCN[*:1])[C@@H](C)C(=O)[*:2]; aIle = CC[C@@H](C)[C@H](N)C(=O)O; aThr = C[C@H](O)[C@H](N)C(=O)O; NMeL = CN[C@@H](CC(C)C)C(=O)O; Chg = N[C@H](C(=O)O)C1CCCCC1; Dap = NC[C@H](N)C(=O)O

Each compound was assayed on Escherichia coli (E. coli) strain CFT073 ATCC 700928. Conditions: ATCC 700928, 22 h.
Type: cell-based
Procedure: In vitro antimicrobial activity of each compound was determined by measuring minimal inhibitor concentrations (MICs) using the broth micro-dilution technique as approved by the Clinical and Laboratory Standards Institute (CLSI) (Methods for Dilution Antimicrobial Susceptibility Tests for Bacteria that Grow Aerobically; Approved Standard—Eighth Edition. CLSI document M07-A8. Wayne, Pa.: Clinical and Laboratroy Standards; 2009). Antibacterial activity was measure against Escherichia coli (E. coli) strain CFT073 ATCC 700928, which is a clinically relevant Gram-negative strain. Cells were inoculated onto plates of Mueller Hinton Agar and grown at 37° C. for 16-18 hours. Inocula suspensions were prepared by scraping cells into 1 mL of testing media (Mueller Hinton II cation adjusted Broth supplemented with 0.002% v/v Tween-80) and diluting to a final OD600 nm of 0.01.
Test compounds were prepared in DMSO at a concentration of 100 uM The compounds were tested under several different dilution formats and the data are reported in Tables 6, 7 and 8. In protocol 1, the compound stocks were diluted into testing media at a concentration of 64 μg/ml and serial 2-fold dilutions were made in the same media, in 96-well U bottom microtiter dishes, for a total of 10 compound concentrations. In protocol 2, the compound stocks were diluted into testing media at a concentration of 4 μg/mL and serial 2-fold dilutions were made in the same media, in 96-well U bottom microtiter dishes, for a total of 10 compound concentrations. In protocol 3, compound stocks were diluted into testing media at a concentration of 0.5 μg/mL, with serial 2-fold dilutions conducted as described above. In protocol 4, compound stocks were diluted into testing media at a concentration of 0.13 μg/mL, with serial 2-fold dilutions conducted as described above. Inocula suspensions were added to the 2-fold serial dilutions of test compounds to a final density of OD OD600 nm of 0.0005 and incubated at 35° C. for 22 hours.

SMILES | MIC [µM]
CCCCCC[C@H]1OC(=O)CNC(=O)[C@H]([C@H](C)O)NC(=O)[C@H](CN)NC(=O)[C@H](C2CCCCC2)NC(=O)[C@H](CC(C)C)N(C)C(=O)[C@@H]1CCc1ccc(C)cc1 [Example 97, (6S,9S,12S,15S,18R,19R)-9-(aminomethyl)-12-cyclohexyl-19-hexyl-15-isobutyl-16-methyl-18-[2-(p-tolyl)ethyl]-6-[(1S)-1-hydroxyethyl]-1-oxa-4,7,10,13,16-pentazacyclononadecane-2,5,8,11,14,17-hexone] | 3.7 (≈ 2.9 µg/mL)
CCCCCCCCCC[C@H]1OC(=O)CNC(=O)[C@H]([C@H](C)O)NC(=O)[C@H](CO)NC(=O)[C@H](CCC)NC(=O)[C@H](CC(C)C)N(C)C(=O)[C@@H]1C [Example 40, (6S,9S,12S,15S,18R,19R)-19-decyl-6-((S)-1-hydroxyethyl)-9-(hydroxymethyl)-15-isobutyl-16,18-dimethyl-12-propyl-1-oxa-4,7,10,13,16-pentaazacyclononadecane-2,5,8,11,14,17-hexaone] | 50 (≈ 34.9 µg/mL)
CCCCCC[C@H]1O[C@@H](C)CNC(=O)[C@H]([C@H](C)O)NC(=O)[C@H](CN)NC(=O)[C@H](C2CCCCC2)NC(=O)[C@H](CC(C)C)N(C)C(=O)[C@@H]1C [Example 71, (2S,6S,9S,12S,15S,18R,19R)-9-(Aminomethyl)-12-cyclohexyl-19-hexyl-6-((S)-1-hydroxyethyl)-15-isobutyl-2,16,18-trimethyl-1-oxa-4,7,10,13,16-pentaazacyclononadecane-5,8,11,14,17-pentaone] (cyclo([Chg][Dap][aThr][X16][NMeL])) | 12 (≈ 8.17 µg/mL)
CC[C@H](C)[C@@H]1NC(=O)[C@H](CC(C)C)N(C)C(=O)[C@H](C)[C@@H](CCCCC(C)(C)C)OC(=O)CNC(=O)[C@H]([C@H](C)O)NC(=O)[C@H](CO)NC1=O [Example 44, (6S,9S,12S,15S,18R,19R)-19-(5,5-dimethylhexyl)-6-[(1S)-1-hydroxyethyl]-9-(hydroxymethyl)-15-isobutyl-16,18-dimethyl-12-[(1S)-1-methylpropyl]-1-oxa-4,7,10,13,16-pentazacyclononadecane-2,5,8,11,14,17-hexone] | 25 (≈ 17.1 µg/mL)
CCCCCC[C@H]1OC(=O)CNC(=O)[C@H](CNC(N)=O)NC(=O)[C@H](CN)NC(=O)[C@H](C2CCCCC2)NC(=O)[C@H](CC(C)C)N(C)C(=O)[C@@H]1C [Example 116, [(6S,9S,12S,15S,18R,19R)-9-(aminomethyl)-12-cyclohexyl-19-hexyl-15-isobutyl-16,18-dimethyl-2,5,8,11,14,17-hexaoxo-1-oxa-4,7,10,13,16-pentazacyclononadec-6-yl]methylurea] | 50 (≈ 35.4 µg/mL)
CCCCCC[C@H]1OC[C@@H](C)NC(=O)[C@H](COc2ccc(CCN)cc2)NC(=O)[C@H](CN)NC(=O)[C@H](C2CCCCC2)NC(=O)[C@H](CC(C)C)N(C)C(=O)[C@@H]1C [Example 174, (3R,6S,9S,12S,15S,18R,19R)-6-((4-(2-Aminoethyl)phenoxy)methyl)-9-(aminomethyl)-12-cyclohexyl-19-hexyl-15-isobutyl-3,16,18-trimethyl-1-oxa-4,7,10,13,16-pentaazacyclononadecane-5,8,11,14,17-pentaone] | 1.6 (≈ 1.26 µg/mL)
CCCCCC[C@H]1OC(=O)CNC(=O)[C@H]([C@H](C)O)NC(=O)[C@H](CN)NC(=O)[C@H](C2Cc3ccccc3C2)NC(=O)[C@H](CCC)N(C)C(=O)[C@@H]1C [Example 142, (6S,9S,12S,15S,18R,19R)-9-(aminomethyl)-19-hexyl-12-indan-2-yl-16,18-dimethyl-15-propyl-6-[(1S)-1-hydroxyethyl]-1-oxa-4,7,10,13,16-pentazacyclononadecane-2,5,8,11,14,17-hexone] | 8.8 (≈ 6.17 µg/mL)
CCCCCCCCCC[C@H]1OC(=O)CNC(=O)[C@H](CC)NC(=O)[C@H](CO)NC(=O)[C@H]([C@@H](C)CC)NC(=O)[C@H](CC(C)C)N(C)C(=O)[C@@H]1C [Example 24, (6S,9S,12S,15S,18R,19R)-19-decyl-16-ethyl-9-(hydroxymethyl)-15-isobutyl-16,18-dimethyl-12-[(1S)-1-methylpropyl]-1-oxa-4,7,10,13,16-pentazacyclononadecane-2,5,8,11,14,17-hexone] | 13 (≈ 9.05 µg/mL)
CCCCCCCCCC[C@H]1OC(=O)CNC(=O)[C@H](CN)NC(=O)[C@H](CO)NC(=O)[C@H]([C@@H](C)CC)NC(=O)[C@H](CC(C)C)N(C)C(=O)[C@@H]1C [Example 19, (6S,9S,12S,15S,18R,19R)-6-(aminomethyl)-19-decyl-9-(hydroxymethyl)-15-isobutyl-16,18-dimethyl-12-[(1S)-1-methylpropyl]-1-oxa-4,7,10,13,16-pentazacyclononadecane-2,5,8,11,14,17-hexone] | 25 (≈ 17.4 µg/mL)
CC(C)C[C@H]1C(=O)N[C@@H](C2CCCCC2)C(=O)N[C@@H](CN)C(=O)N[C@@H](COCCCN)C(=O)NCC(=O)O[C@H](CCCCC(C)(C)C)[C@@H](C)C(=O)N1C [Example 75, (6S,9S,12S,15S,18R,19R)-9-(Aminomethyl)-6-((3-aminopropoxy)methyl)-12-cyclohexyl-19-(5,5-dimethylhexyl)-15-isobutyl-16,18-dimethyl-1-oxa-4,7,10,13,16-pentaazacyclononadecane-2,5,8,11,14,17-hexaone] | 3.1 (≈ 2.33 µg/mL)
CCCCCCCCCC[C@H]1OCCNC(=O)[C@H](CO)NC(=O)[C@H](CN)NC(=O)[C@H]([C@H](C)CC)NC(=O)[C@H](CC(C)C)N(C)C(=O)[C@@H]1C [Example 99, (6S,9S,12S,15S,18R,19R)-9-(aminomethyl)-19-decyl-6-(hydroxymethyl)-15-isobutyl-16,18-dimethyl-12-[(1R)-1-methylpropyl]-1-oxa-4,7,10,13,16-pentazacyclononadecane-5,8,11,14,17-pentone] (cyclo([Dap]S[X23][NMeL][aIle])) | 17 (≈ 11.6 µg/mL)
CC(C)C[C@H]1C(=O)N[C@@H](C2CCCCC2)C(=O)N[C@@H](CN)C(=O)N[C@@H]([C@H](C)O)C(=O)NCC(=O)O[C@H](CC2CC3CCC2C3)[C@@H](C)C(=O)N1C (stereo partly drawn) [Example 62, (6S,9S,12S,15S,18R,19R)-9-(Aminomethyl)-19-(((exo)-bicyclo[2.2.1]heptan-2-yl)methyl)-12-cyclohexyl-6-((S)-1-hydroxyethyl)-15-isobutyl-16,18-dimethyl-1-oxa-4,7,10,13,16-pentaazacyclononadecane-2,5,8,11,14,17-hexaone] | 1.6 (≈ 1.13 µg/mL)
CCCCCCCCCC[C@H]1OC(=O)CNC(=O)[C@H]([C@H](C)O)NC(=O)[C@H](CN)NC(=O)[C@H]([C@H](C)CC)NC(=O)C(CCC(F)(F)F)N(C)C(=O)[C@@H]1C (single isomer, unassigned) [Example 17, 9-(aminomethyl)-19-decyl-6-(1-hydroxyethyl)-16,18-dimethyl-12-sec-butyl-15-(3,3,3-trifluoropropyl)-1-oxa-4,7,10,13,16-pentazacyclononadecane-2,5,8,11,14,17-hexone] | 25 (≈ 18.8 µg/mL)
CCC[C@H]1C(=O)N[C@@H](C2CCCCCC2)C(=O)N[C@@H](CN)C(=O)N[C@@H]([C@H](C)O)C(=O)NCC(=O)O[C@H](CC2CC3CCC2CC3)[C@@H](C)C(=O)N1C (stereo partly drawn) [Example 79, (6S,9S,12S,15S,18R,19R)-9-(Aminomethyl)-19-(bicyclo[2.2.2]octan-2-ylmethyl)-12-cycloheptyl-6-((S)-1-hydroxyethyl)-16,18-dimethyl-15-propyl-1-oxa-4,7,10,13,16-pentaazacyclononadecane-2,5,8,11,14,17-hexaone] | 0.78 (≈ 0.561 µg/mL)
CCCCCC[C@H]1OC(=O)CNC(=O)[C@H](COCCCN)NC(=O)[C@H](CN)NC(=O)[C@H](C2CCCCCC2)NC(=O)[C@H](CCC)N(C)C(=O)[C@@H]1C [Example 133, (6S,9S,12S,15S,18R,19R)-9-(aminomethyl)-6-(3-aminopropoxymethyl)-12-cycloheptyl-19-hexyl-16,18-dimethyl-15-propyl-1-oxa-4,7,10,13,16-pentazacyclononadecane-2,5,8,11,14,17-hexone] | 3.1 (≈ 2.24 µg/mL)
CCCCCC[C@H]1OC[C@@H](C)NC(=O)[C@H](COc2ccc(CN)cc2)NC(=O)[C@H](CN)NC(=O)[C@H](C2CCCCC2)NC(=O)[C@H](CC(C)C)N(C)C(=O)[C@@H]1C [Example 76, (3R,6S,9S,12S,15S,18R,19R)-9-(Aminomethyl)-6-((4-(aminomethyl)phenoxy)methyl)-12-cyclohexyl-19-hexyl-15-isobutyl-3,16,18-trimethyl-1-oxa-4,7,10,13,16-pentaazacyclononadecane-5,8,11,14,17-pentaone] | 6.3 (≈ 4.86 µg/mL)

Same assay, conditions: E. coli CFT073 ATCC 700928; Mueller Hinton II cation adjusted Broth with 0.002% v/v Tween-80; 35° C. for 22 hours; lowest concentration that completely prevented bacterial growth

SMILES | MIC
CCCCCCCCCC[C@H]1OC(=O)CNC(=O)[C@H](CO)NC(=O)[C@H](CO)NC(=O)[C@H]([C@H](C)CC)NC(=O)[C@H](CC(C)C)N(C)C(=O)[C@@H]1C [Example 5, (6S,9S,12S,15S,18R,19R)-12-((R)-sec-butyl)-19-decyl-6,9-bis(hydroxymethyl)-15-isobutyl-16,18-dimethyl-1-oxa-4,7,10,13,16-pentaazacyclononadecane-2,5,8,11,14,17-hexaone] | 4.7 µM and 3.1 µM
